Results: patent publication US8207142B2, “Inhibitor of DNA methylation” (priority 2001, dated 2012)
Where “and” joins values, the source holds several entries; their conditions need not be identical. Identical values can stand only once.

Experiments:
[1] = tested on: p16 exon 2; test: Ms-SNuPE quantitation of DNA methylation in T24 cells, p16 exon 2; format: cell-based, human; details: 3 μM, 24 hrs
Procedure: (§1) The average methylation at defined CpG sites was quantitated using a Ms-SNuPE assay, as described by Gonzalgo and Jones (Nucleic Acids Res. 25:2529-2531, 1997) and U.S. Pat. No. 6,251,594. Briefly, genomic DNA (˜4 μg) was digested overnight with 4 units of EcoRI (Boehringer Mannheim) (p16 promoter/exon 1 and p16 exon 2; FIG. 9A) or with 4 units of RsaI (Boehringer Mannheim) (P3; FIG. 9B) to cut outside the region of interest.
(§2) After standard treatment with sodium bisulfite, a PCR product of the region was generated as template for top-strand methylation analysis. The sequences of the primers used for bisulfite-treated DNA amplification were as follows: […]
p16 exon 2: 94° C. for 3 minutes, 94° C. for 1 minute, 62° C. for 45 seconds, and 72° C. for 45 seconds for 40 cycles, with a final extension step at 72° C. for 10 minutes.
(§3) Duplicates of 4 μl of template were then added to 6 μl of mixture consisting of 1× PCR buffer, 1 μM final concentration primers, 1 μCi of [^32P]dCTP or dTTP, and 1 unit 1:1 Taq/TaqStart antibody (Clontech, Palo Alto, Calif.). Single nucleotide extension involved incubation at 95° C. for 1 minute, then 50° C. for 2 minutes, and finally 72° C. for 1 minute (p16 promoter/exon1 and P16 exon 2) and 95° C. for 1 minute, then 46° C. for 30 seconds, and finally 72° C. for 20 seconds (P3). The sequences for SNuPE primers were as follows: […]
(§4) After briefly spinning down the tubes, 4 μl of stop solution were added to the 10-μl reaction volume, and the samples were boiled for 5 minutes at 95° C. before loading 1.5 μl onto a 15% denaturing polyacrylamide gel (7 M urea). The gel was run at 90 W for 1.5 hours and then dried at 80° C. for 40 minutes. The gel was exposed to a phosphorimaging cassette for quantitation of the ratio of [^32P]dCTP versus [^32P]dTTP incorporation, and the quantitation of the percent methylation was averaged from three separate CpG sites. The gel was then exposed to BioMax MR film (Kodak) to record experimental results.

[2] = tested on: 10T1/2 cells; test: Colony-formation assay (plating efficiency) in 10T1/2 cells; format: cell-based, mouse
Procedure: (§5) The percentage cell survival was assessed by dividing the mean colony number on the treated plates divided by the mean colony number on the untreated plates ×100.

[3] = tested on: p16 promoter; test: Ms-SNuPE quantitation of DNA methylation in T24 cells, p16 promoter; format: cell-based, human; details: 3 μM, 24 hrs; control 96
Procedure: as §1, §2
p16 promoter/exon 1: 94° C. for 3 minutes, 94° C. for 45 seconds, 67° C. for 45 seconds, and 72° C. for 45 seconds for 40 cycles, with a final extension step at 72° C. for 10 minutes.
as §3, §4

[4] = tested on: T24 cells; test: Colony-formation assay (decrease in plating efficiency) in T24 cells; format: cell-based, human; details: 3 μM, 24 hrs
Procedure: as §5

[5] = tested on: p16 gene expression in T24 cells; test: RT-PCR analysis of p16 expression in T24 cells; format: cell-based, human; details: 3 μM
Procedure: The T24 cell line was obtained from the American Type Culture Collection (Rockville, Md.) and cultured in DMEM supplemented with 10% heat-inactivated fetal calf serum and 100 U/ml penicillin-streptomycin. Cultures were grown in a humidified incubator at 37° C. in an atmosphere of 5% CO2 in air.
Cells were plated (3×10^5 cells/100-mm dish) and treated 24 hours later with the indicated concentrations of compounds. The medium was either changed 24 hours or 48 hours after drug treatment.
DNA and RNA were isolated three days after treatment using the NucleoBond RNA/DNA Midi Kit (Clontech Laboratories, Inc., Palo Alto, Calif.).
Total RNA (˜10 μg) was reverse-transcribed using the following reagents: 100 units RNAsin (Promega Corp., Madison, Wis.), 0.1 M DTT (Life Technologies, Inc.), 1000 units of MMLV-RT (Life Technologies, Inc.), 1 mM deoxynucleotide triphosphates (Boehringer Mannheim, Germany), 75 μg/ml BSA, 1× MMLV-RT buffer (Life Technologies, Inc.), and 0.025 ODU Random Hexamers (Amersham-Pharmacia Biotech, Piscataway, N.J.). The reaction mixture was incubated for 10 minutes at 25° C., 45 minutes at 42° C., 3 minutes at 90° C., and chilled for 5 minutes at 4° C., during which time 1.25 μl of MMLV-RT (200 U/μl) were added and the sample then incubated for 45 minutes at 42° C., 10 minutes at 75° C., and stored at −20° C.
cDNA was amplified with primers specific for either p16 or GAPDH. Briefly, PCR reactions were performed in 25-μl volumes at 94° C. for 3 minutes, 28 cycles at 94° C. for 1 minute, 56° C. for 30 seconds, 72° C. for 40 seconds, and a final extension step at 72° C. for 5 min (p16 amplification), and 94° C. for 1 minute, 19 cycles at 94° C. for 1 minute, 58° C. for 30 seconds, 72° C. for 45 seconds, and a final extension step at 72° C. for 2 minutes (GAPDH amplification).
PCR amplifications were performed with cDNA template concentration equivalent to 100 ng of RNA in 10% DMSO. All reactions were analyzed in the linear range of amplification. PCR products were resolved on 2% agarose gels and subsequently transferred to a nylon membrane (Zetaprobe; Bio-Rad, Richmond, Calif.) under alkaline conditions. All blots were hybridized with a γ-^32P-labeled internal oligonucleotide probe, using protocols previously described (Xiong and Laird, Nuc. Acids Res. 25:2532-2534, 1997).
Since 5-Aza-CdR has been shown previously to induce p16 expression in a dose-dependent manner (Bender et al., Cancer Res. 58:95-101, 1998), the two ribonucleoside analogs 5-Aza-CR and Zeb were examined to determine their abilities to induce p16 expression (FIG. 8). Because Zeb is stable in aqueous solution, the effect of prolonging Zeb treatment on p16 expression was tested by treating these cells with different concentrations of Zeb for either 24 hours or 48 hours. RT-PCR was then performed to determine whether p16 gene was induced by drug treatment.

[6] = tested on: 10T1/2 cells; test: Induction of a myogenic phenotype (myotube formation) in 10T1/2 cells; format: cell-based, mouse; set-up: key to Muscle Formation: + representing minimal muscle formation; scored for muscle cells 9-10 days later as + to +++; +++ representing maximal muscle formation
Procedure: Cells were plated (3×10^5 cells/100-mm dish) and treated 24 hours later with the indicated concentrations of compounds. The medium was either changed 24 hours or 48 hours after drug treatment. Myotube formation was assayed in 10T1/2 cells as previously described (Constantinides et al., Nature 267:364-366, 1977). […] The ability of Zebularine to cause 10T1/2 cells to undergo the myogenic switch was therefore tested (FIG. 7).

[7] = tested on: p3 locus; test: Ms-SNuPE quantitation of DNA methylation in 10T1/2 cells; format: cell-based, mouse; details: 0.3 μM, 24 hours, control 86
Procedure: as §1, §2
P3: 95° C. for 2 minutes, 95° C. for 1 minute, 50° C. for 50 seconds, and 72° C. for 1 minute for 40 cycles, with a final extension at 72° C. for 10 minutes.
as §3, §4

[8] = tested on: DNA methylation of the am^RIP and ψ63 sequences; test: Southern blot analysis of DNA methylation in N. crassa (Dpn II vs Sau3AI digests); format: cell-based, Neurospora crassa; details: 12 and 24 μM 5-AC; 0.33 and 3.3 μM TSA; 20, 39, 78, 160 and 310 μM Zebularine
Procedure: DNA was digested with Dpn II (D) or Sau3AI (S), fractionated by gel electrophoresis, transferred to a membrane and probed for am (FIG. 4A) or ψ63 (FIG. 4B) sequences. Dpn II and Sau3AI both recognize the sequence GATC, but Sau3AI fails to cleave if the C residue is methylated. Thus, differences between S and D lanes are indicative of DNA methylation.
The ramp symbols at the top of the figure represent increasing concentrations of drug. Drug concentrations were 12 and 24 μM 5-AC; 0.33 and 3.3 μM TSA; and 20, 39, 78, 160 and 310 μM Zebularine. The positions of selected size standards (kb) are indicated.
Southern hybridizations were performed on DNA samples (−1 μg) isolated from liquid cultures inoculated with 7×10^4 conidia/ml. DNA was digested with Dpn II (D) or Sau3AI (S), fractionated by gel electrophoresis, transferred to a nylon membrane and probed for am^RIP (FIG. 4A) or ψ63 (FIG. 4B) sequences. The restriction endonucleases Dpn II and-Sau3AI both recognize the sequence GATC, but Sau3AI fails to cleave if the C residue is methylated. Drug concentrations were […] 5-AC, 0.33 and 3.3 μM TSA, and […] Zebularine.
The positions of selected size standards (kb) and the origin (ori) are indicated. […] Differences between S and D lanes are indicative of DNA methylation.

| Structure (SMILES) | Relative p16 Exon 2 De-methylation (%) [1] | p16 Exon 2 Methylation (%) ([1]; control 96) | decrease in plating deficiency (cytotoxicity) ([2]; 0.3 μM, 10T1/2 cells) [%] | Ave. Plating Efficiency (%) ([2]; 0.3 μM, 250 cells, stained after 14-16 days, control 22) | cell death observed ([2]; 10T1/2 cells, 0.3 μM 5-Aza-CdR, 3 μM 5-Aza-CR, 30 μM Zebularine) | p16 Promoter Methylation (%) [3] | Toxicity (%) (decrease in plating efficiency) [4] | p16 expression (RT-PCR) [5] | Muscle Formation ([6]; 0.3 μM, 24 hours treatment, scored 9-10 days later) | muscle formation (micrographs, in words) ([6]; 10T1/2 cells, approximately 9-10 days after drug treatment) | % Methylation [7] | effect on DNA methylation (Southern blot) [8] |
| --- | --- | --- | --- | --- | --- | --- | --- | --- | --- | --- | --- | --- |
| Nc1ncn([C@H]2C[C@H](O)[C@@H](CO)O2)c(=O)n1 [5-Aza-CdR, 5-aza-2′-deoxycytidine] | 47 +/− 1% | 51 +/− 1% | 74 | 5 | appreciable cell death | 52% and 52 +/− 5% | 75 | robust expression of p16 | +++ | formed multinucleated myotubes | 54% and 54 +/− 5% |  |
| CC(/C=C/C(=O)NO)=C\[C@@H](C)C(=O)c1ccc(N(C)C)cc1 [TSA, trichostatin A] |  |  |  |  |  |  |  |  |  |  |  | selective inhibition of methylation |
